Laboratory results from US20240262801A1, “COMPOUNDS HAVING 5-(2-FLUORO-6-HYDROXYPHENYL)-1,2,5-THIADIAZOLIDIN-3-ONE 1,1-DIOXIDE AS INHIBITORS OF PROTEIN KINASE PHOSPHATASE ENZYMES” (Ness Therapeutics, Inc., priority 2021, published 2024).
Where two headings read alike, the source gives them in different places.

Tests used:
[1] = target: T1, GST-tagged PTPN2 protein (Homo sapiens, UniProt P17706); assay: Primary assay of PTPN2 enzymatic activity inhibition (DiFMUP fluorescence); format: biochemical; settings: DiFMUP substrate 2 μM, 60 min at RT
T1 construct: purchased ActiveMotif 31592
T1 sequence (P17706 with tags, fused parts or gaps): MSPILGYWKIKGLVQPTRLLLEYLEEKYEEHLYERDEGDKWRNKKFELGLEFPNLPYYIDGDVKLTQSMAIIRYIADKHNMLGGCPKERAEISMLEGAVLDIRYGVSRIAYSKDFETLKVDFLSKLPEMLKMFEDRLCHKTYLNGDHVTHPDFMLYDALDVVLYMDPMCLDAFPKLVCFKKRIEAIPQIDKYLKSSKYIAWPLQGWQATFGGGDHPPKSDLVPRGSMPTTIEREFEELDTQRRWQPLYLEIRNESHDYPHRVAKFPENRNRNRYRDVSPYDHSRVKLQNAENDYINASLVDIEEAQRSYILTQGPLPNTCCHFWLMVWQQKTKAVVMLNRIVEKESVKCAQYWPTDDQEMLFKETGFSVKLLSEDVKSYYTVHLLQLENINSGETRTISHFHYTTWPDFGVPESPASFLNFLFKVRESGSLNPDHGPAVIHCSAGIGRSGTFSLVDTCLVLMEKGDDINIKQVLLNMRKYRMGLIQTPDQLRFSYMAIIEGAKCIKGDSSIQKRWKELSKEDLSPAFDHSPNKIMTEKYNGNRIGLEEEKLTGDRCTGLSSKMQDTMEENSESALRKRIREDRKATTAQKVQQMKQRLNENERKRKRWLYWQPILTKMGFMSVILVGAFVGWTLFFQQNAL
Outline: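 Enzyme at 0.004 ng/μL final in 50 mM HEPES pH 7.2-7.4, 2 mM EDTA, 100 mM NaCl, BSA, 6 mM DTT; compounds preincubated 10 min at RT. DiFMUP added at 2 μM final, 60 min at RT, fluorescence read at ex 360/em 450 nm. IC50 calculated from % inhibition.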

[2] = test system: B16F10 mouse melanoma cells; assay: Tumor cells B16F10 cellular growth IFNγ-induced inhibition assay (CellTiter-Glo); format: cell-based; settings: for IC50: B16-F10, 72 h, 3 days incubation; for inhibition at 100 µM: B16-F10, B16F10, 100 μM compound; for inhibition at 40 µM: B16-F10, B16F10, 40 μM compound
Outline: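 Cells were seeded at 500/well in DMEM + 10% FBS and allowed to adhere overnight at 37° C, 5% CO2. Compounds at 1× final were added via medium with or without IFNγ (5 ng/ml in the dilution medium). After 3 days, CellTiter-Glo luminescence gave % growth inhibition versus the DMSO/IFNγ control, from which IC50 was derived.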

[3] = B16F10, + IFNγ, read-out: IC50 + IFNγ
[4] = B16F10, no IFNγ, read-out: IC50 no IFNγ
[5] = + IFNγ, read-out: % Growth Inhibition at 100 μM + IFNγ
[6] = no IFNγ, read-out: % Growth Inhibition at 100 μM no IFNγ
[7] = no IFNγ, read-out: % Growth Inhibition no IFNγ @ 40 μM

Compound	IC50 [1]	IC50 [2, 3]	IC50 [2, 4]	inhibition at 100 µM [2, 5]	inhibition at 100 µM [2, 6]	inhibition at 40 µM [2, 7]	inhibition at 40 µM ([2]; + IFNγ, read-out: % Growth Inhibition + IFNγ @ 40 μM)
Cc1ccccc1NC(=O)Nc1cc(O)c(N2CC(=O)NS2(=O)=O)c(F)c1 [Example 39, 1-[4-(1,1-dioxido-4-oxo-1,2,5-thiadiazolidin-2-yl)-3-fluoro-5-hydroxyphenyl]-3-(2-methylphenyl)urea]	0.01 to 0.05 µM	50 to 100 µM	≥ 100 µM	50 to 75%	10 to 50%		
COc1ccc(S(=O)(=O)Nc2cc(O)c(N3CC(=O)NS3(=O)=O)c(F)c2)cc1 [Example 25, N-[4-(1,1-dioxido-4-oxo-1,2,5-thiadiazolidin-2-yl)-3-fluoro-5-hydroxyphenyl]-4-methoxybenzenesulfonamide]	0.01 to 0.05 µM	10 to 50 µM	≥ 100 µM	50 to 75%	10 to 50%		
O=C1CN(c2c(O)cc(NC(=O)c3ccccc3)cc2F)S(=O)(=O)N1 [Example 13, N-[4-(1,1-dioxido-4-oxo-1,2,5-thiadiazolidin-2-yl)-3-fluoro-5-hydroxyphenyl]benzamide]	0.1 to 0.5 µM	≥ 100 µM	≥ 100 µM	10 to 50%	10 to 50%		
O=C1CN(c2c(O)cc(NS(=O)(=O)c3ccccc3)cc2F)S(=O)(=O)N1 [Example 17, N-[4-(1,1-dioxido-4-oxo-1,2,5-thiadiazolidin-2-yl)-3-fluoro-5-hydroxyphenyl]benzenesulfonamide]	0.01 to 0.05 µM	10 to 50 µM	10 to 50 µM			10 to 50%	
COCCCNC(=O)Nc1cc(O)c(N2CC(=O)NS2(=O)=O)c(F)c1 [Example 58, 1-[4-(1,1-dioxido-4-oxo-1,2,5-thiadiazolidin-2-yl)-3-fluoro-5-hydroxyphenyl]-3-(3-methoxypropyl)urea]	0.01 to 0.05 µM	5 to 10 µM	≥ 100 µM	75 to 100%	10 to 50%		
Cc1ccc(-c2cc(C(F)(F)F)nn2-c2ccc(S(=O)(=O)Nc3cc(O)c(N4CC(=O)NS4(=O)=O)c(F)c3)cc2)cc1 [Example 19, N-[4-(1,1-dioxido-4-oxo-1,2,5-thiadiazolidin-2-yl)-3-fluoro-5-hydroxyphenyl]-4-[5-(4-methylphenyl)-3-(trifluoromethyl)-1H-pyrazol-1-yl]benzenesulfonamide]	0.1 to 0.5 µM	≥ 100 µM	≥ 100 µM	10 to 50%	10 to 50%		
CC(C)(C)OC(=O)N1CCC(NC(=O)Nc2cc(O)c(N3CC(=O)NS3(=O)=O)c(F)c2)CC1 [Example 98, tert-butyl 4-[[3-fluoro-5-hydroxy-4-(1,1,4-trioxo-1,2,5-thiadiazolidin-2-yl)phenyl]carbamoyl-amino]piperidine-1-carboxylate]	0.01 to 0.05 µM	≥ 100 µM	≥ 100 µM	10 to 50%	10 to 50%		
COc1ccc(C(=O)Nc2cc(O)c(N3CC(=O)NS3(=O)=O)c(F)c2)cc1 [Example 15, N-[4-(1,1-dioxido-4-oxo-1,2,5-thiadiazolidin-2-yl)-3-fluoro-5-hydroxyphenyl]-4-methoxybenzamide]	0.1 to 0.5 µM	10 to 50 µM	10 to 50 µM			10 to 50%	10 to 50%
CCOc1ccccc1-c1cc(O)c(N2CC(=O)NS2(=O)=O)c(F)c1 [Example 5, 5-(2′-ethoxy-3-fluoro-5-hydroxybiphenyl-4-yl)-1,2,5-thiadiazolidin-3-one 1,1-dioxide]	0.1 to 0.5 µM	≥ 100 µM	≥ 100 µM	50 to 75%	10 to 50%		

Second part, led by results:

IC50 [1]	IC50 [2, 3]	IC50 [2, 4]	Compound	inhibition at 100 µM [2, 5]	inhibition at 100 µM [2, 6]	inhibition at 40 µM [2, 7]	inhibition at 40 µM ([2]; + IFNγ, read-out: % Growth Inhibition + IFNγ @ 40 μM)
0.005 to 0.01 µM	≥ 100 µM	≥ 100 µM	O=C1CN(c2c(O)cc(NC(=O)Nc3ccccc3C(F)(F)F)cc2F)S(=O)(=O)N1 [Example 55, 1-[4-(1,1-dioxido-4-oxo-1,2,5-thiadiazolidin-2-yl)-3-fluoro-5-hydroxyphenyl]-3-[2-(trifluoromethyl)phenyl]urea]	10 to 50%	10 to 50%		
< 0.005 µM	≥ 100 µM	≥ 100 µM	COc1ccc(NC(=O)Nc2cc(O)c(N3CC(=O)NS3(=O)=O)c(F)c2)cc1 [Example 37, 1-[4-(1,1-dioxido-4-oxo-1,2,5-thiadiazolidin-2-yl)-3-fluoro-5-hydroxyphenyl]-3-(4-methoxyphenyl)urea]	10 to 50%	10 to 50%		
< 0.005 µM	5 to 10 µM	≥ 100 µM	O=C1CN(c2c(O)cc(NC(=O)NC3CCCNC3)cc2F)S(=O)(=O)N1 (stereo not shown) [Example 104, 1-[3-fluoro-5-hydroxy-4-(1,1,4-trioxo-1,2,5-thiadiazolidin-2-yl)phenyl]-3-(3-piperidyl)urea]	75 to 100%	10 to 50%		
0.005 to 0.01 µM	≥ 100 µM	≥ 100 µM	CC(C)CCN1CC(CNC(=O)Nc2cc(O)c(N3CC(=O)NS3(=O)=O)c(F)c2)C2(CCCCC2)C1 (stereo not shown) [Example 102, 1-[3-fluoro-5-hydroxy-4-(1,1,4-trioxo-1,2,5-thiadiazolidin-2-yl)phenyl]-3-[(2-isopentyl-2-azaspiro[4.5]decan-4-yl)methyl]urea]	10 to 50%	10 to 50%		
< 0.005 µM	50 to 100 µM	≥ 100 µM	CC(C)CNC(=O)C12CC(NC(=O)Nc3cc(O)c(N4CC(=O)NS4(=O)=O)c(F)c3)(C1)C2 [Example 112, 3-[[3-fluoro-5-hydroxy-4-(1,1,4-trioxo-1,2,5-thiadiazolidin-2-yl)phenyl]carbamoylamino]-N-isobutyl-bicyclo[1.1.1]pentane-1-carboxamide]	10 to 50%	10 to 50%		
< 0.005 µM	≥ 100 µM	≥ 100 µM	O=C1CN(c2c(O)cc(NC(=O)Nc3cccc(Cl)c3)cc2F)S(=O)(=O)N1 [Example 46, 1-(3-chlorophenyl)-3-[4-(1,1-dioxido-4-oxo-1,2,5-thiadiazolidin-2-yl)-3-fluoro-5-hydroxyphenyl]urea]	10 to 50%	10 to 50%		
< 0.005 µM	5 to 10 µM	≥ 100 µM	O=C1CN(c2c(O)cc(NC(=O)NC3CCCCC3O)cc2F)S(=O)(=O)N1 (stereo not shown) [Example 105, 1-[3-fluoro-5-hydroxy-4-(1,1,4-trioxo-1,2,5-thiadiazolidin-2-yl)phenyl]-3-(2-hydroxycyclohexyl)urea]	75 to 100%	10 to 50%		
